Experimental data from US20190106747A1, “DRUGS, PHARMACOGENOMICS AND BIOMARKERS FOR ACIVE LONGEVITY” (Indiana University Research and Technology Corporation, priority 2016, published 2019).

What was measured:
PLA2G6 = target: T1, PLA2G6 (Homo sapiens, UniProt O60733); conditions: existing drug targeting top longevity biomarker; cited from earlier work
T1 sequence (O60733 1-806): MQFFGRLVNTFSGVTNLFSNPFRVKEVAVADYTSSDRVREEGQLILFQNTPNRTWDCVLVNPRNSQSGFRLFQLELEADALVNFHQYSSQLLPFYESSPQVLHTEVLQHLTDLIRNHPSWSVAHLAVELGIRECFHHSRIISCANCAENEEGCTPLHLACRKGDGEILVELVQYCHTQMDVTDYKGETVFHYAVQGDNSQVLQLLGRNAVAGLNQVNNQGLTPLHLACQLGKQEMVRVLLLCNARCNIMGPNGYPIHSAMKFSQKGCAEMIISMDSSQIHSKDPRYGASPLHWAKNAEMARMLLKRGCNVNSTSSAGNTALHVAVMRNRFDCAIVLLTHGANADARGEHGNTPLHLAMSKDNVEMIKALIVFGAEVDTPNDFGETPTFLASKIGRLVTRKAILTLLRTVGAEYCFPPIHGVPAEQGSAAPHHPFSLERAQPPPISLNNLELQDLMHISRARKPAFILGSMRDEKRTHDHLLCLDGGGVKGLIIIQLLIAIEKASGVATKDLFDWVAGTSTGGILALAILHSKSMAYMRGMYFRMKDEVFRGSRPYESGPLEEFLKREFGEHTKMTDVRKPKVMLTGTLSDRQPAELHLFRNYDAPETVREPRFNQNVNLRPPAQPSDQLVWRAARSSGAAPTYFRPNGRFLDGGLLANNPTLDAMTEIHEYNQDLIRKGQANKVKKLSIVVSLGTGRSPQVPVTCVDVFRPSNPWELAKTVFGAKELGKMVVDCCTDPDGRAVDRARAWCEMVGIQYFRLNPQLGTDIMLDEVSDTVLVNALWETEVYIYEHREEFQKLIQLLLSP

MME = conditions: Table 5 biomarkers in males; longevity direction of change D; cited from earlier work
ABCC1 = ABCC1 (Homo sapiens, UniProt P33527); conditions: existing drug targeting top longevity biomarker; cited from earlier work
POLH = conditions: Table 4 universal biomarkers; longevity direction of change I; cited from earlier work
NAV1 = conditions: Table 4 universal biomarkers; longevity direction of change D; cited from earlier work
worms = conditions: direct prior experimental evidence; cited from earlier work
ANK3 = conditions: amygdala of a mouse model of mood disorders and stress; previous work; cited from earlier work
C. elegans [1] = test: Lifespan of C. elegans treated with Mianserin; type: in vivo; conditions: for increase in lifespan: 50 μM Mianserin vs water
Protocol: FIG. 4B is a graph depicting lifespan curves of wt and unc-44(e362) animals treated with water or 50 μM Mianserin. […] (Y-axis) as a function of time [days] (X-axis). Dotted lines represent wt (N2) animals and bold lines represent unc-44(e362) mutants. Black: solvent control; red: Mianserin 50 μM. […] Asterisks indicate P values (**; P<0.01, ***P<0.001).
FIG. 4C is a graph depicting mean increase in lifespan [%] (Y-axis) as a function of Mianserin concentration [μM] (X-axis). Solid red line represents unc-44(e362) animals. Dotted red line represents the parallel control experiment of Mianserin-treated wt (N2) animals. Error bars show standard deviation for experimental replicates.

C. elegans [2] = test: Survival after paraquat (oxidative stress) in Mianserin-treated C. elegans; type: in vivo; conditions: three independent alleles (e362, e1197, e1260) of ANK3/unc-44; 50 μM Mianserin from day 1 adult, paraquat five days later
Protocol: FIG. 4A are graphs depicting Mianserin-induced protection from oxidative stress requires ANK3/unc-44, the C. elegans homolog of mammalian ANK3. Wild-type (wt) N2 strain (dotted lines) or ANK3/unc-44 mutants (bold lines), at day 1 adult stage, were treated with water (black) or 50 μM Mianserin (red), followed by increasing concentrations of paraquat five days later. Survival of animals was determined 24 h after paraquat addition and plotted in [%] (Y-axis) as a function of paraquat concentration [mM] (X-axis). Parallel wt (N2) control experiments (dotted lines) are shown for each graph. […] All error bars show S.E.M for 3 to 4 independent experiments.

Chain of ABCC1 (P33527 whole entry): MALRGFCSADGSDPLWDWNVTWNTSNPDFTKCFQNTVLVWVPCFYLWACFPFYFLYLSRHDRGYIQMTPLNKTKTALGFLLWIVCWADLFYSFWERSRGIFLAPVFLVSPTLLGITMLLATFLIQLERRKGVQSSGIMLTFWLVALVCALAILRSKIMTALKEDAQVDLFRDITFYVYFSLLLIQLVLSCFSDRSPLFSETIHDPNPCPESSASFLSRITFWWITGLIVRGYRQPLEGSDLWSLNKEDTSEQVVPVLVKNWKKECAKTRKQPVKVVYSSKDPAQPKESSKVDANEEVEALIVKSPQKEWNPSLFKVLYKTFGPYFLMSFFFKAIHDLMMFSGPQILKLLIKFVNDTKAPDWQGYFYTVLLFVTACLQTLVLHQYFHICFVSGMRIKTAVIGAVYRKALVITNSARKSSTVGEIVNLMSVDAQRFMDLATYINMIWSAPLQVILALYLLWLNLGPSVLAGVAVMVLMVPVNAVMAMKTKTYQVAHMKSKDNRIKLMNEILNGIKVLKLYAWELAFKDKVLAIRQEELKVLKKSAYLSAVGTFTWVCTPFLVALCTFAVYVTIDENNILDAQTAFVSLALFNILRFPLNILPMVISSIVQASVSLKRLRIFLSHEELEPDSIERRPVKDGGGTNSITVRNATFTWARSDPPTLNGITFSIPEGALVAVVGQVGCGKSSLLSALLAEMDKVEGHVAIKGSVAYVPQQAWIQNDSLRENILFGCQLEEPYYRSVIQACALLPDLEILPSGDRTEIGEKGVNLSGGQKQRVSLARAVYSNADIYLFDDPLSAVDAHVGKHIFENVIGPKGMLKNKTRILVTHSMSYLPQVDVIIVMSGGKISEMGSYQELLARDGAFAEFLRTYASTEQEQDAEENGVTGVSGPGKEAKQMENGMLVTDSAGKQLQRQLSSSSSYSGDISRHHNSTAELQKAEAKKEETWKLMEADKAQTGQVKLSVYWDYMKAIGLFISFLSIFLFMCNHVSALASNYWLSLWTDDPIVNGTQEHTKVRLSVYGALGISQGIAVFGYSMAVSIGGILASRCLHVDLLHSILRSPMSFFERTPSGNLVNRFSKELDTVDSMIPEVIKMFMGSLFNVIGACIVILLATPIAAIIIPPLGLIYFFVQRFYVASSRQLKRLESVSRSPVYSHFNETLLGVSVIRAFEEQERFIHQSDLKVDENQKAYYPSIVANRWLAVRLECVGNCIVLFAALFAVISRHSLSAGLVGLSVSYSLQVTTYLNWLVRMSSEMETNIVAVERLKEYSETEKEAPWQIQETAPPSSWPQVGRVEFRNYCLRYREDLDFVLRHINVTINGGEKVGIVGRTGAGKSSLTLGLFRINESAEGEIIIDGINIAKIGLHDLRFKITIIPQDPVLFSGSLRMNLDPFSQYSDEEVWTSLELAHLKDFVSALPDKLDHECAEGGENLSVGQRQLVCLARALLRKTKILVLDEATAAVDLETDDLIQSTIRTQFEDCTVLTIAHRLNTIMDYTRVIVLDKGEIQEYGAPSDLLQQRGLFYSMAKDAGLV

CCN(CC)CCCC(C)Nc1c2ccc(Cl)cc2nc2ccc(OC)cc12 (racemic) [quinacrine, (RS)—N′-(6-Chloro-2-methoxy-acridin-9-yl)-N,N-diethylpentane-1,4-diamine]
effect on PLA2G6 (PLA2G6): inhibiting

sacubitril/valsartan
MME modulated by drug in the same direction as longevity (MME): sacubitril/

O=C1C(CC[S+]([O-])c2ccccc2)C(=O)N(c2ccccc2)N1c1ccccc1 (centres unmarked) [sulfinpyrazone, 1,2-diphenyl-4-[2-(phenylsulfinyl)ethyl]pyrazolidine-3,5-dione]
effect on ABCC1 (ABCC1): inhibiting

NC(=O)N1c2ccccc2C=Cc2ccccc21 [Carbamazepine]
POLH modulated by drug in the same direction as longevity (POLH): Carbamazepine

COc1ccc(C(CN(C)C)C2(O)CCCCC2)cc1 (centres unmarked) [Venlafaxine]
NAV1 modulated by drug in the same direction as longevity (NAV1): Venlafaxine

C[C@]12CC[C@@H]3c4ccc(O)cc4CC[C@H]3[C@@H]1CC[C@@H]2O [estradiol, (8R,9S,13S,14S,17S)-13-methyl-6,7,8,9,11,12,14,15,16,17-decahydrocyclopenta[a]phenanthrene-3,17-diol]
lifespan (worms): extending lifespan

CC/C=C\C/C=C\C/C=C\C/C=C\C/C=C\C/C=C\CCC(=O)O [DHA]
ANK3 expression (ANK3): decreased

CN1CCN2c3ccccc3Cc3ccccc3C2C1 (racemic) [Mianserin, (±)-2-methyl-1,2,3,4,10,14b-hexahydrodibenzo[c,f]pyrazino[1,2-a]azepine]
lifespan extension as a function of Mianserin concentration (C. elegans [1]; ANK3/unc-44(e362) mutants, any Mianserin concentration): No lifespan extension | increase in lifespan (C. elegans [1]; unc-44(e362) mutant animals): −9% | increase in lifespan (C. elegans [1]; wild-type (N2) animals): +40% | resistance to oxidative stress (survival 24 h after paraquat) (C. elegans [2]): failed to increase resistance to oxidative stress
